{"source": "paper PMC12592400", "about": "“A unique inhibitor conformation selectively targets the DNA polymerase PolC of Gram-positive priority pathogens” (Nature Communications, 2025)", "key": {"C. difficile 630Δerm": {"system": "C. difficile 630Δerm", "assay": "Simplified agar dilution susceptibility of C. difficile carrying plasmid-based polC alleles", "format": "cell-based, Clostridioides difficile", "conditions": "for MIC: Clostridioides difficile, 48 h", "procedure": "E. coli strains were cultured aerobically at 37 °C at 180 rpm in Lysogeny Broth (LB) (1% w/v tryptone (Oxoid), 1% w/v NaCl (J.T.Baker), 0.5% w/v yeast extract). C. difficile strains were cultured in Brain Heart Infusion broth (BHI) (3.7% w/v brain heart infusion broth (Oxoid), 0.5% w/v yeast extract). Culturing of C. difficile was carried out anaerobically at 37 °C at 140 rpm in an atmosphere of 85% N2, 10% CO2, and 5% H2, using a Don Whitley VA1000 workstation. For solid media, 1.5% w/v agar (Alfa Aesar) was used. Where appropriate, media were supplemented with 50 mg/L colistin (Cayman Chemical), chloramphenicol (10 mg/L for liquid medium and 20 mg/L for agar plates), 30 mg/L kanamycin, and 15 mg/L thiamphenicol.\nDNA fragments were amplified by PCR from total genomic DNA of C. difficile strain 630Δerm[40] with Q5 High-Fidelity DNA Polymerase (NEB), using oligonucleotides oNM-001/oNM-003 (amplifying the polC gene with its presumptive promoter). The oNM-001/oNM-003 PCR fragment was digested using KpnI (Roche) and BamHI (Thermo Scientific). Digesting of plasmid pAP24[65] with enzymes allowed for the isolation of plasmid backbone after agarose gel electrophoresis. The backbone was ligated to the digested PCR fragments and transformed into chemically competent DH5α E. coli cells by heat shock; transformants were selected on media containing chloramphenicol. To generate plasmids carrying variant polC genes, mutations were introduced in the plasmids harbouring wild-type polC using QuikChange Site-Directed Mutagenesis and verified by Sanger sequencing using primers listed in Supplementary Table 3. An overview of all constructed plasmids and strains can be found in Supplementary Table 4 and 5.\nE. coli donor strain CA434 was transformed with the plasmid to be transferred and subsequently grown on agar plates containing chloramphenicol and kanamycin. A 1 mL aliquot of 20 h grown liquid E. coli transformant culture was pelleted by centrifugation (2 min at 10,000 x g) and cells were resuspended in 200 µL non-sporulating C. difficile 630Δerm culture. The mixture was plated onto non-selective BHI agar in 5 µL spots and after 20 h incubation, cells were harvested in 1 mL pre-reduced phosphate-buffered saline and plated in 100 µL aliquots on BHI agar supplemented with thiamphenicol and colistin. Putative transconjugants were confirmed by PCRs with primers oWKS-1070 and oWKS-1071 (targeting chromosomal gluD) and oWKS-1387, oWKS-1388, oWKS-1389, and oWKS-1390 (targeting traJ or repA on the plasmid). Note that these strains are merodiploid and carry a wild-type chromosomal copy of polC.\nSusceptibilities of the parental and plasmid-carrying strains to IBZ and ACX-801 were determined using a simplified agar dilution method. In short, C. difficile strains were cultured for 20 h in liquid BHI. Bacterial cells were harvested by 10-min centrifugation at 3220 x g and resuspended in pre-reduced phosphate-buffered saline to a McFarland turbidity standard of 1.0. Suspensions were inoculated as 5 µL spots onto BHI agar containing different concentrations of inhibitor (0, 2, 4, 8, 16, 32, 64 mg/L). MICs (defined as the first dilution with severely impaired or no visible growth) were determined after 48 h and imaged on a SCAN500 plate imager (Interscience)."}, "[1]": {"system": "C. difficile strain carrying a F1258L mutation", "assay": "MIC of C. difficile strain obtained by one-step passage", "format": "cell-based", "conditions": "Clostridioides difficile"}, "[2]": {"conditions": "cited from earlier work"}, "[3]": {"design": "method as in PMID 35134880, PMID 32892222", "conditions": "cited from earlier work"}, "[4]": {"system": "Clostridioides difficile infection", "design": "method as in PMID 35862742, PMID 35134880", "conditions": "patients cured of CDI through treatment with IBZ; cited from earlier work"}, "E. faecium ATCC 700221": {"system": "E. faecium ATCC 700221", "assay": "Frequency of resistance (FOR) study", "format": "cell-based, Enterococcus faecium", "conditions": "for CFU total count (48h): replicates 1-2; for Number of reduced susceptible colonies: Suppl. Table 2", "procedure": "Strains with reduced susceptibility to ACX compounds were generated by WuXi Apptec on behalf of Acurx Pharmaceuticals, Inc., using E. faecium ATCC 700221 as parental strain.\nAgar MICs for the wild-type strain were determined on Blood agar (Huankai). Compounds and linezolid were dissolved in 100% DMSO and vancomycin in ultrapure water. Strains were inoculated onto agar plates, incubated at 37 °C for 20-24 h after which colonies were suspended in sterile 0.9% saline at different bacterial concentrations. 5 μL of bacterial suspensions was individually spotted on agar plates supplemented with compounds at different concentrations, resulting in final concentrations of 10^–1, 10^–2, 10^–3, 10^–4, 10^–5, 10^–6, and 10^–7 per spot. After incubation for 20-24 h, bacterial growth was assessed by visual inspection.\nFor frequency of resistance (FOR) studies, colonies from the agar plate were suspended into sterile 0.9% saline to get 10^8-10^9 CFU bacterial cells per mL. […] The suspensions were also serially diluted with 0.9% saline and spotted onto agar to determine the actual inoculum. All agar plates were incubated at 37 °C for 48 h. FOR was defined as colony number on each compound-containing plate per CFU number of actual inoculum. Resistant colonies were subcultured on the corresponding compound plates to confirm that colonies were resistant and stable."}, "[5]": {"conditions": "plasmid carrying polC-p.F1258I versus wild-type strain"}, "[6]": {"conditions": "plasmid carrying polC-p.F1258L versus wild-type strain"}, "[7]": {"conditions": "plasmid carrying polC-p.F1258S versus wild-type strain"}}, "data": [{"smiles": "O=c1[nH]c(NCc2ccc3c(c2)OC(F)(F)O3)nc2c(F)nn(CCO)c12", "note": "[ACX-801, 5-(((2,2-difluorobenzo[d][1,3]dioxol-5-yl)methyl)amino)-3-fluoro-1-(2-hydroxyethyl)-1,6-dihydro-7H-pyrazolo[4,3-d]pyrimidin-7-one]", "values": [{"measurement": "MIC", "setting": "C. difficile 630Δerm", "value": 2, "unit": "µg/mL"}, {"measurement": "increase in the MIC", "setting": "C. difficile 630Δerm; plasmid carrying polC-p.A1263T versus wild-type strain", "value": "fourfold"}, {"measurement": "increase of MIC", "setting": "C. difficile 630Δerm; [5]", "value": 32, "unit": "fold"}, {"measurement": "increase of MIC", "setting": "C. difficile 630Δerm; [6]", "value": "≥ 32", "unit": "fold"}, {"measurement": "increase of MIC", "setting": "C. difficile 630Δerm; [7]", "value": 4, "unit": "fold"}]}, {"smiles": "O=c1[nH]c(NCc2ccc(Cl)c(Cl)c2)nc2ncn(CCN3CCOCC3)c12", "note": "[IBZ, N^2-(3,4-dichlorobenzyl)-7-(2-[1-morpholinyl]ethyl)guanine]", "values": [{"measurement": "MIC", "setting": "C. difficile 630Δerm", "value": 2, "unit": "µg/mL"}, {"measurement": "increase of MIC", "setting": "C. difficile 630Δerm; [5]", "value": 8, "unit": "fold"}, {"measurement": "increase of MIC", "setting": "C. difficile 630Δerm; [6]", "value": 32, "unit": "fold"}, {"measurement": "increase of MIC", "setting": "C. difficile 630Δerm; [7]", "value": 2, "unit": "fold"}, {"measurement": "MIC", "setting": "[1]", "value": 64, "unit": "µg/mL"}, {"measurement": "absorption", "setting": "[2]", "value": "poorly absorbed"}, {"measurement": "faecal levels", "setting": "[2]", "value": "> 1000", "unit": "μg/g stool"}, {"measurement": "solubility", "setting": "[3]", "value": "low"}, {"measurement": "recurrence of CDI during the post-treatment study period", "setting": "[4]", "value": "no recurrence was observed"}]}, {"smiles": "CC(=O)NC[C@H]1CN(c2ccc(N3CCOCC3)c(F)c2)C(=O)O1", "note": "[LZD, linezolid]", "values": [{"measurement": "CFU total count (48h)", "setting": "E. faecium ATCC 700221; 1x MIC (ACX-728 2, ACX-641 0.5, ACX-671 1, ACX-763 4, Linezolid 2 mg/L), inoculum 1.3E+07 CFU/plate", "value": "TMTC"}, {"measurement": "CFU total count (48h)", "setting": "E. faecium ATCC 700221; 1x MIC (ACX-728 2, ACX-641 0.5, ACX-671 1, ACX-763 4, Linezolid 2 mg/L), inoculum 1.3E+08 CFU/plate", "value": "TMTC"}, {"measurement": "CFU total count (48h)", "setting": "E. faecium ATCC 700221; 2x MIC (ACX-728 4, ACX-641 1, ACX-671 2, ACX-763 8, Linezolid 4 mg/L), inoculum 1.3E+07 CFU/plate", "value": "TMTC"}, {"measurement": "CFU total count (48h)", "setting": "E. faecium ATCC 700221; 2x MIC (ACX-728 4, ACX-641 1, ACX-671 2, ACX-763 8, Linezolid 4 mg/L), inoculum 1.3E+08 CFU/plate", "value": "TMTC"}, {"measurement": "CFU total count (48h)", "setting": "E. faecium ATCC 700221; 4x MIC (ACX-728 8, ACX-641 2, ACX-671 4, ACX-763 16, Linezolid 8 mg/L), inoculum 1.3E+07 CFU/plate", "value": "TMTC"}, {"measurement": "CFU total count (48h)", "setting": "E. faecium ATCC 700221; 4x MIC (ACX-728 8, ACX-641 2, ACX-671 4, ACX-763 16, Linezolid 8 mg/L), inoculum 1.3E+08 CFU/plate", "value": "TMTC"}, {"measurement": "CFU total count (48h)", "setting": "E. faecium ATCC 700221; 8x MIC (ACX-728 16, ACX-641 4, ACX-671 8, ACX-763 32, Linezolid 16 mg/L), inoculum 1.3E+07 CFU/plate", "value": "TMTC"}, {"measurement": "CFU total count (48h)", "setting": "E. faecium ATCC 700221; 8x MIC (ACX-728 16, ACX-641 4, ACX-671 8, ACX-763 32, Linezolid 16 mg/L), inoculum 1.3E+08 CFU/plate", "value": "TMTC"}, {"measurement": "CFU total count (48h)", "setting": "E. faecium ATCC 700221; 16x MIC (ACX-728 32, ACX-641 8, ACX-671 16, ACX-763 64, Linezolid 32 mg/L), inoculum 1.3E+07 CFU/plate", "value": "TMTC"}, {"measurement": "CFU total count (48h)", "setting": "E. faecium ATCC 700221; 16x MIC (ACX-728 32, ACX-641 8, ACX-671 16, ACX-763 64, Linezolid 32 mg/L), inoculum 1.3E+08 CFU/plate", "value": "TMTC"}, {"measurement": "Number of reduced susceptible colonies", "setting": "E. faecium ATCC 700221; Fold MIC 2, 1.3E+07 cells plated", "value": "TMTC"}, {"measurement": "Number of reduced susceptible colonies", "setting": "E. faecium ATCC 700221; Fold MIC 2, 1.3E+08 cells plated", "value": "TMTC"}, {"measurement": "Number of reduced susceptible colonies", "setting": "E. faecium ATCC 700221; Fold MIC 4, 1.3E+07 cells plated", "value": "TMTC"}, {"measurement": "Number of reduced susceptible colonies", "setting": "E. faecium ATCC 700221; Fold MIC 4, 1.3E+08 cells plated", "value": "TMTC"}, {"measurement": "Number of reduced susceptible colonies", "setting": "E. faecium ATCC 700221; Fold MIC 8, 1.3E+07 cells plated", "value": "TMTC"}, {"measurement": "Number of reduced susceptible colonies", "setting": "E. faecium ATCC 700221; Fold MIC 8, 1.3E+08 cells plated", "value": "TMTC"}, {"measurement": "Number of reduced susceptible colonies", "setting": "E. faecium ATCC 700221; Fold MIC 16, 1.3E+07 cells plated", "value": "TMTC"}, {"measurement": "Number of reduced susceptible colonies", "setting": "E. faecium ATCC 700221; Fold MIC 16, 1.3E+08 cells plated", "value": "TMTC"}]}]}
